The record followed here is patent US11358952B2, “Substituted 4-aminoisoindoline-1,3-dione compounds, compositions thereof, and methods of treatment therewith” (Celgene Corporation, priority 2018, dated 2022).

The experiment relates to SU-DHL-4 cell line. As to the kind of experiment: SU-DHL-4 cell proliferation assay (Cell Titer-Glo viability). The class given is cell-based. To be noted: Homo sapiens; cell viability IC50 activity level, DLBCL cell line SU-DHL-4, 120 hours post-treatment; read-out: SU-DHL-4 Act. The procedure, abridged:
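Viability read by ATP luminescence (Cell Titer-Glo) at the start and after 120 h of growth at 37°C in 5% CO2. DLBCL cells were seeded at 500 per well with compound across 0.5 nM–10 μM in 20 points, 0.1% DMSO. A four-parameter sigmoidal fit gave IC50 as 50% of DMSO control.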
Regarding `CN1CCC2(CCN(Cc3ccc(CNc4cccc5c4C(=O)N(C4CCC(=O)NC4=O)C5=O)c(F)c3)CC2)C1=O` (centres unmarked) [Cpd 151, 2-(2,6-dioxopiperidin-3-yl)-4-(2-fluoro-4-((2-methyl-1-oxo-2,8-diazaspiro[4.5]decan-8-yl)methyl)benzylamino)isoindoline-1,3-dione], the IC50 is less than 200 nM.
In the case of `O=C1CCC(N2C(=O)c3cccc(NCc4ccc(CN5CCC6(COC6)C5)cc4F)c3C2=O)C(=O)N1` (centres unmarked) [Cpd 227, 4-(4-(2-oxa-6-azaspiro[3.4]octan-6-ylmethyl)-2-fluorobenylamino)-2-(2,6-dioxopiperidin-3-yl)isoindoline-1,3-dione] it was less than 200 nM; in that of `O=C1CCC(N2C(=O)c3cccc(NCc4ccc(CN5CCC(C6CCOCC6)CC5)cc4F)c3C2=O)C(=O)N1` (centres unmarked) [Cpd 215, 2-(2,6-dioxopiperidin-3-yl)-4-(2-fluoro-4-((4-(tetrahydro-2H-pyran-4-yl)piperidin-1-yl)methyl)benzylamino)isoindoline-1,3-dione], less than 200 nM.
In the case of `Cc1cc(CNc2cccc3c2C(=O)N(C2CCC(=O)NC2=O)C3=O)ccc1CN1CC(N2CCOCC2)C1` (centres unmarked) [Cpd 201, 2-(2,6-dioxopiperidin-3-yl)-4-(3-methyl-4-((3-morpholinoazetidin-1-yl)methyl)benzylamino)isoindoline-1,3-dione] it was less than 200 nM; in that of `Cc1cc(CNc2cccc3c2C(=O)N(C2CCC(=O)NC2=O)C3=O)ccc1CN1CC(c2cccnc2)C1` (centres unmarked) [Cpd 80, 2-(2,6-dioxopiperidin-3-yl)-4-(3-methyl-4-((3-(pyridin-3-yl)azetidin-1-yl)methyl)benzylamino)isoindoline-1,3-dione], less than 200 nM; in that of `Cc1cc(CNc2cccc3c2C(=O)N(C2CCC(=O)NC2=O)C3=O)ccc1CN1CCN(c2ccc(F)cc2F)CC1` (centres unmarked) [Cpd 50, 4-(4-((4-(2,4-difluorophenyl)piperazin-1-yl)methyl)-3-methylbenzylamino)-2-(2,6-dioxopiperidin-3-yl)isoindoline-1,3-dione], 200 to 500 nM.
To `O=C1CCC(N2C(=O)c3cccc(NCc4ccc(CN5CCC(C6CCOCC6)CC5)cc4)c3C2=O)C(=O)N1` (centres unmarked) [Cpd 213, 2-(2,6-dioxopiperidin-3-yl)-4-(4-((4-(tetrahydro-2H-pyran-4-yl)piperridin-1-yl)methyl)benzylamino)isoindoline-1,3-dione] belongs less than 200 nM; to `Cc1cc(CNc2cccc3c2C(=O)N(C2CCC(=O)NC2=O)C3=O)ccc1CN1CC2(COC2)C1` (centres unmarked) [Cpd 228, 4-(4-(2-oxa-6-aaspiro[3.3]heptan-6-ylmethyl)-3-methylbenzylamino)-2-(2,6-dioxopiperidin-3-yl)isoindoline-1,3-dione], 200 to 500 nM; to `O=C1CCC(N2C(=O)c3cccc(NCc4ccc(CN5CC(N6CCCC6=O)C5)cc4F)c3C2=O)C(=O)N1` (centres unmarked) [Cpd 169, 2-(2,6-dioxopiperidin-3-yl)-4-(2-fluoro-4-((3-(2-oxopyrrolidin-1-yl)azetidin-1-yl)methyl)benzylamino)isoindoline-1,3-dione], less than 200 nM.
Consider `Cc1cc(CNc2cccc3c2C(=O)N(C2CCC(=O)NC2=O)C3=O)ccc1CN1CC(Oc2ccc(C#N)cc2)C1` (centres unmarked) [Cpd 83, 4-(1-(4-((2-(2,6-dioxopiperidin-3-yl)-1,3-dioxoisoindolin-4-ylamino)methyl)-2-methylbenzyl)azetidin-3-yloxy)benzonitrile], for which the IC50 is less than 200 nM.
As to `O=C1CCC(N2C(=O)c3cccc(NCc4ccc(CN5CCN(c6ccc(F)cc6F)CC5)cc4F)c3C2=O)C(=O)N1` (centres unmarked) [Cpd 108, 4-(4-((4-(2,4-difluorophenyl)piperazin-1-yl)methyl)-2-fluorobenzylamino)-2-(2,6-dioxopiperidin-3-yl)isoindoline-1,3-dione], the IC50 was less than 200 nM.
In the case of `O=C1CCC(N2C(=O)c3cccc(NCc4ccc(CN5CCC(OCC6CC6)CC5)cc4)c3C2=O)C(=O)N1` (centres unmarked) [Cpd 127, 4-(4-((4-(cyclopropylmethoxy)piperidin-1-yl)methyl)benzylamino)-2-(2,6-dioxopiperidin-3-yl)isoindoline-1,3-dione] it was 751 to 1000 nM; in that of `O=C1CCC(N2C(=O)c3cccc(NCc4ccc(CN5CCCOCC5)cc4F)c3C2=O)C(=O)N1` (centres unmarked) [Cpd 242, 4-(4-((1,4-oxazepan-4-yl)methyl)-2-fluorobenzylamino)-2-(2,6-dioxopiperidin-3-yl)isoindoline-1,3-dione], 200 to 500 nM.
For `COc1cc(N2CCN(Cc3ccc(CNc4cccc5c4C(=O)N(C4CCC(=O)NC4=O)C5=O)cc3)CC2)ncn1` (centres unmarked) [Cpd 136, 2-(2,6-dioxopiperidin-3-yl)-4-(4-((4-(6-methoxypyrimidin-4-yl)piperazin-1-yl)methyl)benzylamino)isoindoline-1,3-dione], the IC50 fell in the range of 751 to 1000 nM.
For the molecule `O=C1CCC(N2C(=O)c3cccc(NCc4ccc(CN5CC(c6ccc(F)cc6)C5)cc4)c3C2=O)C(=O)N1` (centres unmarked) [Cpd 14, 2-(2,6-dioxopiperidin-3-yl)-4-(4-((3-(4-fluorophenyl)azetidin-1-yl)methyl)benzylamino)isoindoline-1,3-dione], the IC50 lay within 200 to 500 nM.
To `N#Cc1cccc(C2CN(Cc3ccc(CNc4cccc5c4C(=O)N(C4CCC(=O)NC4=O)C5=O)cc3F)C2)c1` (centres unmarked) [Cpd 120, 3-(1-(4-((2-(2,6-dioxopiperidin-3-yl)-1,3-dioxoisoindolin-4-ylamino)methyl)-2-fluorobenzyl)azetidin-3-yl)benzonitrile] belongs less than 200 nM.
On to `Cc1cc(CNc2cccc3c2C(=O)N(C2CCC(=O)NC2=O)C3=O)ccc1CN1CCC(n2cccn2)CC1` (centres unmarked) [Cpd 56, 4-(4-((4-(1H-pyrazol-1-yl)piperidin-1-yl)methyl)-3-methylbenzylamino)-2-(2,6-dioxopiperidin-3-yl)isoindoline-1,3-dione], for which the IC50 was less than 200 nM.
Take `N#Cc1ccc(C2CN(Cc3ccc(CNc4cccc5c4C(=O)N(C4CCC(=O)NC4=O)C5=O)c(F)c3)C2)cc1` (centres unmarked) [Cpd 104, 4-(1-(4-((2-(2,6-dioxopiperidin-3-yl)-1,3-dioxoisoindolin-4-ylamino)methyl)-3-fluorobenzyl)azetidin-3-yl)benzonitrile]: the IC50 is less than 200 nM.
In the case of `C[C@@H]1CN(c2ccc(C#N)cn2)CCN1Cc1ccc(CNc2cccc3c2C(=O)N(C2CCC(=O)NC2=O)C3=O)cc1` (stereo partly drawn) [Cpd 53, 6-((3R)-4-(4-((2-(2,6-dioxopiperidin-3-yl)-1,3-dioxoisoindolin-4-ylamino)methyl)benzyl)-3-methylpiperazin-1-yl)nicotinonitrile] it was less than 200 nM; in that of `O=C1CCC(N2C(=O)c3cccc(NCc4ccc(CN5CCN(c6noc7ccccc67)CC5)cc4)c3C2=O)C(=O)N1` (centres unmarked) [Cpd 187, 4-(4-((4-(benzo[d]isoxazol-3-yl)piperazin-1-yl)methyl)benzylamino)-2-(2,6-dioxopiperidin-3-yl)isoindoline-1,3-dione], 200 to 500 nM.
To `O=C1CCC(N2C(=O)c3cccc(NCc4ccc(CN5CCN(c6ccccc6Cl)CC5)cc4)c3C2=O)C(=O)N1` (centres unmarked) [Cpd 12, 4-(4-((4-(2-chlorophenyl)piperazin-1-yl)methyl)benzylamino)-2-(2,6-dioxopiperidin-3-yl)isoindoline-1,3-dione] belongs 200 to 500 nM; to `N#Cc1cc(F)c(N2CCN(Cc3ccc(CNc4cccc5c4C(=O)N(C4CCC(=O)NC4=O)C5=O)cc3)CC2)c(Cl)c1` (centres unmarked) [Cpd 11, 3-chloro-4-(4-(4-((2-(2,6-dioxopiperidin-3-yl)-1,3-dioxoisoindolin-4-ylamino)methyl)benzyl)piperazin-1-yl)-5-fluorobenzonitrile], 501 to 750 nM; to `CC(C)(C)N1CCN(Cc2ccc(CNc3cccc4c3C(=O)N(C3CCC(=O)NC3=O)C4=O)cc2F)CC1` (centres unmarked) [Cpd 93, 4-(4-((4-tert-butylpiperazin-1-yl)methyl)-3-fluorobenzylamino)-2-(2,6-dioxopiperidin-3-yl)isoindoline-1,3-dione], less than 200 nM.
In the case of `O=C1CCC(N2C(=O)c3cccc(NCc4ccc(CN5CCC6(CCOCC6)CC5)cc4F)c3C2=O)C(=O)N1` (centres unmarked) [Cpd 234, 4-(4-(3-oxa-9-azaspiro[5.5]undecan-9-ylmethyl)-2-fluorobenzylamino)-2-(2,6-dioxopiperidin-3-yl)isoindoline-1,3-dione] it was less than 200 nM.
Regarding `CN1CCC2(CCN(Cc3ccc(CNc4cccc5c4C(=O)N(C4CCC(=O)NC4=O)C5=O)cc3F)CC2)C1=O` (centres unmarked) [Cpd 153, 2-(2,6-dioxopiperidin-3-yl)-4-(3-fluoro-4-((2-methyl-1-oxo-2,8-diazaspior[4.5]decan-8-yl)methyl)benzylamino)isoindoline-1,3-dione], the IC50 was 501 to 750 nM.
In the case of `CC(C)S(=O)(=O)C1CCN(Cc2ccc(CNc3cccc4c3C(=O)N(C3CCC(=O)NC3=O)C4=O)c(F)c2)CC1` (centres unmarked) [Cpd 174, 2-(2,6-dioxopiperidin-3-yl)-4-(2-fluoro-4-((4-(isopropylsulfonyl)piperidin-1-yl)methyl)benzylamino)isoindoline-1,3-dione] it was less than 200 nM; in that of `O=C1CCC(N2C(=O)c3cccc(NCc4ccc(CN5CCN(CC6CC6)CC5)cc4F)c3C2=O)C(=O)N1` (centres unmarked) [Cpd 118, 4-(4-((4-(cyclopropylmethyl)piperazin-1-yl)methyl)-2-fluorobenzylamino)-2-(2,6-dioxopiperidin-3-yl)isoindoline-1,3-dione], less than 200 nM.
To `NC(=O)c1cc(N2CCN(Cc3ccc(CNc4cccc5c4C(=O)N(C4CCC(=O)NC4=O)C5=O)cc3F)CC2)ccn1` (centres unmarked) [Cpd 191, 4-(4-(4-((2-(2,6-dioxopiperidin-3-yl)-1,3-dioxoisoindolin-4-ylamino)methyl)-2-fluorobenzyl)piperazin-1-yl)picolinamide] belongs 501 to 750 nM.
To `CN(C)C(=O)c1ccc(N2CCN(Cc3ccc(CNc4cccc5c4C(=O)N(C4CCC(=O)NC4=O)C5=O)cc3F)CC2)cn1` (centres unmarked) [Cpd 142, 5-(4-(4-((2-(2,6-dioxopiperidin-3-yl)-1,3-dioxoisoindolin-4-ylamino)methyl)-2-fluorobenzyl)piperazin-1-yl)-N,N-dimethylpicolinamide] belongs 501 to 750 nM.
